Data published in ChEMBL document CHEMBL1151382, “A pharmacological study of two bisbenzylisoquinoline alkaloids, thalistyline and obamegine” (J Nat Prod, 1982).
Activity calls are given as the source filed them. The calls are words filed in the database; no cut-off is given here.

Key:
Canis familiaris [1] = assay: Cardiovascular effect in anesthetized normotensive dog assessed as rise in heart rate at 0.1 mg/kg, iv; type: functional, Canis lupus familiaris
Canis familiaris [2] = assay: Toxicity in dog at > 0.4 mg/kg, iv; type: organism-based, Canis lupus familiaris; parameters: dose 0.4 mg/kg, route intravenous; conditions: in vivo
Canis familiaris [3] = assay: Cardiovascular effect in anesthetized normotensive dog assessed as decrease in mean arterial pressure at 0.1 to 0.4 mg/kg, iv; type: functional, organism-based; conditions: Canis lupus familiaris, Artery
Canis familiaris [4] = assay: Toxicity in dog assessed as inhibition of respiration at > 0.4 mg/kg, iv; type: organism-based, Canis lupus familiaris; parameters: dose 0.4 mg/kg, route intravenous; conditions: in vivo
[5] = Blockade of neuromuscular transmission activity in albino Sprague-Dawley rat hemidiaphragm assessed as inhibition of electrically-stimulated phrenic nerve contraction; type: functional, tissue-based, Diaphragm
[6] = Antagonist activity at alpha adrenergic receptor in rabbit aortic strips assessed as inhibition of phenylephrine-induced contraction; type: functional, Oryctolagus cuniculus
[7] = Protection of albino Sprague-Dawley rat hemidiaphragm from alpha-bungarotoxin blockade assessed as recovery of nerve-stimulated muscle contraction at 3 X 10^-5 M; type: functional, Muscle tissue
Canis familiaris [8] = assay: Cardiovascular effect in anesthetized normotensive dog assessed as fall in heart rate at 0.1 to 0.4 mg/kg, iv; type: functional, Canis lupus familiaris; conditions: dose mg/kg 0.1-0.4
[9] = Blockade of neuromuscular transmission activity in albino Sprague-Dawley rat hemidiaphragm assessed as inhibition of electrically-stimulated phrenic nerve contraction at 10^-5 M relative to control; type: functional, Diaphragm; parameters: scale not given: the % may be the effect or the level left
[10] = Blockade of neuromuscular transmission activity in albino Sprague-Dawley rat hemidiaphragm assessed as inhibition of electrically-stimulated phrenic nerve contraction at 10^-5 M relative to control in presence of Eserine; type: functional, Diaphragm; parameters: scale not given: the % may be the effect or the level left
Oryctolagus cuniculus = species: Oryctolagus cuniculus; assay: Antagonist activity at alpha adrenergic receptor in rabbit aortic strips assessed as decrease in of phenylephrine-induced contraction at 10^-4 M; type: functional
[11] = Antagonist activity at alpha adrenergic receptor in rabbit aortic strips assessed as decrease in of phenylephrine-induced contraction at 3 X 10^-4 M; type: functional, Oryctolagus cuniculus; parameters: scale not given: the % may be the effect or the level left
Canis familiaris [12] = assay: Toxicity in dog at 0.5 to 4 mg/kg, iv; type: organism-based, Canis lupus familiaris; parameters: dose 0.5-4 mg/kg, route intravenous; conditions: in vivo
Canis familiaris [13] = assay: Cardiovascular effect in anesthetized normotensive iv dosed dog assessed as decrease in mean arterial pressure; type: functional, organism-based; conditions: Canis lupus familiaris; Artery
Canis familiaris [14] = assay: Cardiovascular effect in anesthetized normotensive iv dosed dog assessed as decrease in heart rate; type: functional, Canis lupus familiaris
Canis familiaris [15] = assay: Toxicity in iv dosed dog assessed as inhibition of respiration; type: organism-based, Canis lupus familiaris; conditions: in vivo
Canis familiaris [16] = assay: Cardiovascular effect in anesthetized normotensive dog assessed as decrease in mean arterial pressure at 2 mg/kg, iv upto 22 mins; type: functional, Canis lupus familiaris, Artery
Canis familiaris [17] = assay: Cardiovascular effect in anesthetized normotensive dog assessed as reduction in mean arterial pressure at 2 mg/kg, iv dosed twice with second dose being administered 2.5 hrs interval after the first dose; type: functional, Canis lupus familiaris, Artery
Rattus norvegicus = species: Rattus norvegicus; assay: Blockade of neuromuscular transmission activity in albino Sprague-Dawley rat hemidiaphragm assessed as inhibition of electrically-stimulated phrenic nerve contraction at 1 to 30 X 10^-6 M; type: functional, tissue-based; conditions: Diaphragm

Activity (Oryctolagus cuniculus) | SMILES | Activity (Canis familiaris [1]) [bpm] | Activity (Canis familiaris [2]) | Activity (Canis familiaris [3]) | Activity (Canis familiaris [4]) | IC50 [5] [nM] | Kb ([6]; Oryctolagus cuniculus, read-out: pA2 (converted)) [nM] | Activity [7] [%] | Activity (Canis familiaris [8]) [bpm] | Activity [9] [%] | Activity [10] [%] | Activity [11] [%] | pKb [6] | Activity (Canis familiaris [12]) | Activity (Canis familiaris [13]) | Activity (Canis familiaris [14]) [bpm] | Activity (Canis familiaris [15]) | Activity (Canis familiaris [16]) [mmHg] | Activity (Canis familiaris [17]) [mmHg] | Activity (Rattus norvegicus)
– | COc1ccc(C[C@H]2c3cc(OC)c(OC)c(OC)c3CC[N+]2(C)C)cc1Oc1ccc(C[C@H]2c3cc(OC)c4c(c3CCN2C)OCO4)cc1.[Cl-] [THALISTYLINE] | 20 | Toxic | Active | Toxic | 4980 | 468 | 65.8 | 20 | 24.7 | 63.8 | – | – | – | – | – | – | – | – | –
– | COc1cc2c3cc1Oc1cc(ccc1O)C[C@@H]1c4c(cc(OC)c(O)c4Oc4ccc(cc4)C[C@@H]3N(C)CC2)CC[N+]1(C)C | – | – | – | – | 1420 | – | – | – | – | – | – | – | – | – | – | – | – | – | –
Active | COc1cc2c3cc1Oc1c(O)c(OC)cc4c1[C@@H](Cc1ccc(O)c(c1)Oc1ccc(cc1)C[C@@H]3N(C)CC2)N(C)CC4 [OBAMEGINE] | – | – | – | – | – | – | – | – | – | – | 30 | 5.3 | Non-toxic | Dose-dependent effect | 20 | Non-toxic | 61 | 11 | inactive
